Common to all, as to format: cell-based
One test has as its target T1, hADRB2 (Homo sapiens, UniProt P07550).
T1 construct: HA tag (N); expressed in transfected cells; host or cells: HEK293 (ATCC-LGC), transient transfection, vector pcDps
As to the kind of experiment: cAMP accumulation (AlphaScreen) in HEK293 cells transiently transfected with hADRB2, ligand alone or co-stimulation with ISOP. Conditions: for agonistic effect of the ligand alone: ligand alone 6.7 nM to 6700 nM, 45 min; for effect on ISOP stimulation: pre-incubation 6.7 nM to 6700 nM 15 min, then ISOP 1 nM to 10000 nM 30 min. Here is the method: (§1) We functionally tested the effects of particular trace amines at the human ADRB1 and ADRB2 (figure 3). […] Controls were stimulated with each trace amine and ISOP alone, respectively.
(§2) Figure 3 Characterization of hADRB1 and hADRB2 after trace amine challenge. HEK293 cells were transiently transfected with hADRB1 and hADRB2, respectively. […] As controls hADRB1 and hADRB2 were incubated with each substance alone with the same concentration for 45 minutes. Three to four independent experiments measured in duplex or tripletts mean ± SEM are depicted here. […] Maximal values were statistically analyzed using paired one-tail t-test compared to ISOP maximal stimulation. A-B) hADRB1 and hADRB2 were stimulated with ISOP and TYR alone and with both substances simultaneously.
Human β2-adrenergic receptor (ADRB2, NM_000024.5) was subcloned via EcoRI and SpeI with an N-terminal (HA)-tag as well.
Human embryonic kidney cells (HEK293) were cultured in Minimum Essential Medium (MEM) Earle's (Biochrom AG) supplemented with 10% FBS (PAA Laboratories GmbH), 100 U/ml penicillin, and 100 µg/ml streptomycin (Biochrom AG) and 2 mM L-glutamine (Invitrogen) at 37°C with 5% CO2. 48 well plates were coated with Poly-L-Lysine (Biochrom) and HEK293 cells were seeded with 37,500 cells per well. Transient transfection in triplicates with 84 ng DNA/well using metafectene according to manufactures instructions (Biontex, Munich, Germany) was performed 28 hours later. 40 hours after transfection cells were pre-incubated for 5 minutes with stimulation buffer containing of MEM Earle's media and 1 mM 3-isobutyl-1-methylxanthine (IBMX, Sigma). This stimulation buffer was used for all further steps. […] Ligands were all purchased from Sigma, Munich. Controls were incubated with tyramine, β-phenylethylamine, octopamine or isoprenaline for 45 minutes. All reactions were performed at 37°C with 5% CO2 saturated air and stopped by aspirating medium. Cells were lysed at 4°C for 2 h on a shaking platform with cell lysis buffer containing […] HEPES, 0.1% BSA, 0.3% Tween20 and 1 mM IBMX.
(§3) The competitive cyclic adenosine-monophosphate (cAMP) assay via Alphascreen (Perkin Elmer Life Science, Inc., Boston, MA) was carried out according to the manufacturers' protocol. Briefly, 5 µl of each sample were transferred to a 384 well plate. Acceptor beads were diluted in 1X HBSS with 1M HEPES, 0.1% BSA, pH 7.4 and incubated for 30 minutes at room temperature. Then donor beads and 50 µM biotinylated cAMP diluted in the same way were added and incubated for an hour at room temperature. Measurement of the plate was performed using Berthold Microplate Reader (Berthold Technologies GmbH & Co. KG). Results are expressed in fold over mock (unstimulated empty vector).
On the technique in general: Changes in cAMP serve as a functional read-out for many G protein-coupled receptors.

The next test has as its target T2, hTAAR1 (Homo sapiens, UniProt Q96RJ0).
T2 construct: Full length human TAAR1 (hTAAR1, NM_138327.1) was subcloned; first 20 amino acids of bovine rhodopsin (N); expressed in transfected cells; host or cells: HEK293, transient transfection, vector pcDps
T2 sequence (Q96RJ0 1-339): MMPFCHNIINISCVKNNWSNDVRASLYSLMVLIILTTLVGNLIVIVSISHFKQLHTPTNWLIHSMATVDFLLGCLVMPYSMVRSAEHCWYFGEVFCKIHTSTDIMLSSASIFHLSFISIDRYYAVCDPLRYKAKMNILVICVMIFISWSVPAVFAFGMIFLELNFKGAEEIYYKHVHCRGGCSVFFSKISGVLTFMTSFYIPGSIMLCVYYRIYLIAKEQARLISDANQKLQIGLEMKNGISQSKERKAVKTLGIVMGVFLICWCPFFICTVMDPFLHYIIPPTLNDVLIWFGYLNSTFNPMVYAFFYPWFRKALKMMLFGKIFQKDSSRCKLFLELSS
As to the kind of experiment: cAMP accumulation (AlphaScreen) in HEK293 cells transiently transfected with hTAAR1. Here is the method:
Figure 2 Functional characterization of hTAAR1 interacting with different trace amines. HEK293 cells transiently transfected with hTAAR1 and were incubated for 45 minutes with […] of PEA, OA and TYR. Basal signaling activity as well as activation of the Gs protein/adenylyl cyclase pathway was determined by AlphaScreen technology. Data represent mean ± SEM of cAMP accumulation after stimulation from 4–5 independent experiments performed in triplicates. […]. Data were analyzed using a paired one-tailed t-test.
Full length human TAAR1 (hTAAR1, NM_138327.1) was subcloned into the eukaryotic expression vector pcDps, N-terminally tagged with an hemagglutinin (5′ […] 3′) epitope via KpnI and SpeI restriction sites. For better cell surface expression hTAAR1 was additionally N-terminally fused with the first 20 amino acids of the bovine Rhodopsin [18], [33]. The human β1-adrenergic receptor (hADRB1, NM_000684.2)-pcDps construct cloned via KpnI/SpeI containing N-terminal (HA)-tag and C-terminal Flag-tag (5′ […] 3′).
Human embryonic kidney cells (HEK293) were cultured in Minimum Essential Medium (MEM) Earle's (Biochrom AG) supplemented with 10% FBS (PAA Laboratories GmbH), 100 U/ml penicillin, and 100 µg/ml streptomycin (Biochrom AG) and 2 mM L-glutamine (Invitrogen) at 37°C with 5% CO2. 48 well plates were coated with Poly-L-Lysine (Biochrom) and HEK293 cells were seeded with 37,500 cells per well. Transient transfection in triplicates with 84 ng DNA/well using metafectene according to manufactures instructions (Biontex, Munich, Germany) was performed 28 hours later. 40 hours after transfection cells were pre-incubated for 5 minutes with stimulation buffer containing of MEM Earle's media and 1 mM 3-isobutyl-1-methylxanthine (IBMX, Sigma). This stimulation buffer was used for all further steps. […]. Ligands were all purchased from Sigma, Munich. Controls were incubated with tyramine, β-phenylethylamine, octopamine or isoprenaline for 45 minutes. All reactions were performed at 37°C with 5% CO2 saturated air and stopped by aspirating medium. Cells were lysed at 4°C for 2 h on a shaking platform with cell lysis buffer containing […] HEPES, 0.1% BSA, 0.3% Tween20 and 1 mM IBMX.
as §3, with “vector). Dose response curves and bar graphs with mean ± SEM as well as statistical analysis (paired one-tailed t-test) were generated using GraphPad Prism Version 4.03.” for “vector).”
Supplementary file pone.0027073.s001.tif: Figure S1 Dose response curves of hTAAR1 agonists. […]. HEK293 transiently expressing hTAAR1 were stimulated with each trace amine in concentrations ranging 0.1 mM to 10 nM. Shown are dose response curves fold over basal means ± SEM from n≥4 independent experiments of measured cAMP in triplicates as described in Material and Methods. […]. Data were analyzed using paired one-tailed t-test tested against basal value of hTAAR1. (TIF) Click here for additional data file.

A further test deals with T3, hADRB1 (Homo sapiens, UniProt P08588).
T3 construct: HA tag (N); expressed in transfected cells; host or cells: HEK293 (ATCC-LGC), transient transfection, vector pcDps
T3 sequence (P08588 whole entry): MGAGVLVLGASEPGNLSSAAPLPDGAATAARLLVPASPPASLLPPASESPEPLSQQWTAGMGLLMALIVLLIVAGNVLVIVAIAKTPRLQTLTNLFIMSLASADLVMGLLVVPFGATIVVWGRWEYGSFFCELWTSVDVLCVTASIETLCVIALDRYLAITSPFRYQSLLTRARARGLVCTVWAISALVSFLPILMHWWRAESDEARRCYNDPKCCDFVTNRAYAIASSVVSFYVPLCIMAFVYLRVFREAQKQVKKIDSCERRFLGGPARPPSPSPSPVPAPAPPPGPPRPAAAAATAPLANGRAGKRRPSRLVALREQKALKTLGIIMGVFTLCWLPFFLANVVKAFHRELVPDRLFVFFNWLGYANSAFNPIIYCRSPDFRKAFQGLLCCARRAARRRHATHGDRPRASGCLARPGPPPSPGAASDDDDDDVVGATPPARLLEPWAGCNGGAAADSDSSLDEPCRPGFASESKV
Here is the method: as §1, §2
Human embryonic kidney cells (HEK293) were cultured in Minimum Essential Medium (MEM) Earle's (Biochrom AG) supplemented with 10% FBS (PAA Laboratories GmbH), 100 U/ml penicillin, and 100 µg/ml streptomycin (Biochrom AG) and 2 mM L-glutamine (Invitrogen) at 37°C with 5% CO2. […]
The competitive cyclic adenosine-monophosphate (cAMP) assay via Alphascreen (Perkin Elmer Life Science, Inc., Boston, MA) was carried out according to the manufacturers' protocol. […] Measurement of the plate was performed using Berthold Microplate Reader (Berthold Technologies GmbH & Co. KG). […]

The mark [1] stands for this setting: ligand alone, 45 min, HEK293, cAMP, mean ± SEM.
Where [2] appears, read: ligand alone, HEK293, cAMP accumulation, mean ± SEM, n≥3, read-out: EC50.

These results are taken from article PMC3205048, “Differential Modulation of Beta-Adrenergic Receptor Signaling by Trace Amine-Associated Receptor 1 Agonists” (PLoS ONE, 2011).

What is called EC50 is the concentration needed to bring the measured effect to its halfway point.

The structures appear in SMILES notation. Read-outs that look alike come from different tables or passages of the source.

T1 sequence (P07550 whole entry): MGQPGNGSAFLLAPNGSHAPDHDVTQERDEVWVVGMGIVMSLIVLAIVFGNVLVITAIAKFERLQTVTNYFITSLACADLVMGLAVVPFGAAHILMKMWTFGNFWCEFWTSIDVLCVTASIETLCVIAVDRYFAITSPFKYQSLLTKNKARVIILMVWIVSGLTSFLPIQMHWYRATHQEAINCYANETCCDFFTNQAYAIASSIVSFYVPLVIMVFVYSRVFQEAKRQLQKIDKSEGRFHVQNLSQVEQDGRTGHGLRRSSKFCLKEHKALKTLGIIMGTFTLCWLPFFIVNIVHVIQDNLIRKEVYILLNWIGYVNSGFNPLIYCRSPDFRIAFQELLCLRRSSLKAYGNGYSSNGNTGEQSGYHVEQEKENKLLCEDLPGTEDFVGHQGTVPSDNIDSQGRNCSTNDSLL

Consider `NCCc1ccc(O)cc1` [TYR, tyramine], for which, on hADRB2, the “agonistic effect of the ligand alone” value is recorded as “no agonistic effect” and the “effect on ISOP stimulation” value is “allosteric antagonist”. Besides, at hTAAR1, the EC50 worked out at 1540 ± 251 nM; the Emax came to 219 ± 67 nM; the “activation of hTAAR1 (adenylyl cyclase stimulation, cAMP formation)” value (shortened to “activation of hTAAR1”) is reported as “activate hTAAR1”.
In the case of `NCCc1ccccc1` [PEA, β-phenylethylamine], the “agonistic effect of the ligand alone” value is listed as “no agonistic effects” on hADRB2 and “no agonistic effects” at hADRB1 (ligand alone 6.7 nM to 6700 nM, 45 min). In addition, the “effect on ISOP stimulation” value at hADRB2 and on hADRB1 was “non-competitively antagonized” throughout. Besides, the “activation of hTAAR1” value at hTAAR1 (HEK293, 45 min) is reported as “activate hTAAR1”. Further, at hTAAR1 (setting [1]), the Emax is 403 ± 54 nM. Further, the EC50 on hTAAR1 (setting [2]) came out at 260 ± 16 nM.
`NCC(O)c1ccc(O)cc1` (centres unmarked) [OA, octopamine]: on hADRB2, the “agonistic effect of the ligand alone” value is reported as “no agonistic effect” and the “effect on ISOP stimulation” value is reported as “orthosteric antagonist”. The “activation of hTAAR1” value at hTAAR1 (HEK293, 45 min) was “activate hTAAR1”. For the same molecule, the Emax at hTAAR1 (setting [1]) was 172 ± 42 nM. Further, the EC50 on hTAAR1 (setting [2]) amounted to 4170 ± 1470 nM.
